From patent US11168055B2, “Endocyclic thiamidinoamide-arylamide compound and use thereof for treating hepatitis B” (SHANGHAI LONGWOOD BIOPHARMACEUTICALS CO., LTD., priority 2017, dated 2021)
pEC50: −log10 of the molar value. Read-outs that look alike come from different tables or passages of the source.

Key:
[1] = Determination of cytotoxicity (HepG2 cells, resazurin assay, 4 days); format: cell-based; conditions: human, read-out: Experiment 3 Cytotoxicity CC50
Experimental: Experiment 3: Determination of Cytotoxicity
The cytotoxicity of the test compound was tested using HepG2 cells. The cells were incubated for 4 days in the presence of the test compound. Cell activity was assessed using the resazurin assay.

[2] = tested on: HBV DNA in the supernatant of HepG2.2.15; assay: Determination of anti-HBV activity in HepG2.2.15 cell (HBV DNA in supernatant by qPCR); format: cell-based, Hepatitis B virus
[3] = Hepatitis B virus, HepG2.2.15, HepG2.2.15 cells, HBV DNA, read-out: Experiment 2 Cell experiment EC50
[4] = HepG2.2.15 cells, HBV DNA, read-out: Experiment 2 Cell experiment EC50

SMILES	CC50 at 4 days [1] [µM]	pEC50 [2, 3]	pEC50 [2, 4]	pEC50 ([2]; Hepatitis B virus, HepG2.2.15, read-out: Experiment 2 Cell experiment EC50)
CC(O)[C@H]1C=Cc2c(cn(C)c2C(=O)Nc2ccc(F)c(C#N)c2)S(=N)(=O)N1 (single isomer, unassigned) [Compound 30b1]	> 30	6.00 to 7.00		
CC[C@H](C)[C@H]1C=Cc2c(cn(C)c2C(=O)Nc2ccc(F)c(F)c2)S(=N)(=O)N1 (single isomer, unassigned) [Compound 10n1]	> 30		6.00 to 7.00	
CC(C)[C@H]1C=Cc2c(nn(C)c2C(=O)Nc2ccc(F)c(C#N)c2)S(=N)(=O)N1 (single isomer, unassigned) [Compound 70a1]	> 30		6.00 to 7.00	
Cn1cc2c(c1C(=O)Nc1cc(F)nc(C#N)c1)CC[C@H](C1CCCCC1)NS2(=N)=O (single isomer, unassigned) [Compound 20dd1]	> 30		6.00 to 7.00	
CC(C)C[C@H]1C=Cc2c(cn(C)c2C(=O)Nc2cc(F)nc(C#N)c2)S(=N)(=O)N1 (single isomer, unassigned) [Compound 10w1]	> 30		6.00 to 7.00	
CC(C)[C@H]1C=Cc2c(cn(C)c2C(=O)Nc2cc(F)nc(C#N)c2)S(=N)(=O)N1 (single isomer, unassigned) [Compound 10e1]	> 30		6.00 to 7.00	
Cn1cc2c(c1C(=O)Nc1ccc(F)c(F)c1)CC[C@H](CO)NS2(=N)=O (single isomer, unassigned) [Compound 40g1]	> 30	6.00 to 7.00		
CN=S1(=O)N[C@@H](CC(C)C)C=Cc2c1cn(C)c2C(=O)Nc1ccc(F)c(C#N)c1 (single isomer, unassigned) [Compound 50s1]	> 30		6.00 to 7.00	
CC(C)C[C@H]1C=Cc2c(nn(C)c2C(=O)Nc2ccc(F)c(C#N)c2)S(=N)(=O)N1 (single isomer, unassigned) [Compound 70b1]	> 30		6.00 to 7.00	
CC(C)C[C@H]1C=Cc2c(cn(C)c2C(=O)Nc2ccc(F)c(C#N)c2)S(=O)(=NC2CC2)N1 (single isomer, unassigned) [Compound 50v1]	> 30		6.00 to 7.00	
C[C@@H](OCc1ccccc1)[C@H]1C=Cc2c(cn(C)c2C(=O)Nc2ccc(F)c(C#N)c2)S(=N)(=O)N1 (single isomer, unassigned) [Compound 10ccc1]	> 30		6.00 to 7.00	
CC(C)[C@@H]1C=Cc2c(cn(C)c2C(=O)Nc2ccc(F)c(C#N)c2)S(=N)(=O)N1 (single isomer, unassigned) [Compound 10h1]	> 30	< 6.00		
Cn1cc2c(c1C(=O)Nc1ccc(F)c(F)c1)C=C[C@H](CO)NS2(=N)=O (single isomer, unassigned) [Compound 30g1]	> 30	6.00 to 7.00		
CC(C)C[C@H]1CCc2c(cn(C)c2C(=O)Nc2ccc(F)c(C#N)c2)S(=O)(=NC(C)C)N1 (single isomer, unassigned) [Compound 60x1]	> 30		6.00 to 7.00	
CC(C)[C@H]1C=Cc2c(cn(C)c2C(=O)Nc2ccc(F)c(F)c2)S(=N)(=O)N1 (single isomer, unassigned) [Compound 10a1]	> 30		6.00 to 7.00	
CC(O)[C@H]1C=Cc2c(cn(C)c2C(=O)Nc2cc(F)c(F)c(F)c2)S(=N)(=O)N1 (single isomer, unassigned) [Compound 30c1]	> 30	6.00 to 7.00		
CC(C)[C@H]1CCc2c(cn(C)c2C(=O)Nc2ccc(F)c(F)c2)S(=N)(=O)N1 (single isomer, unassigned) [Compound 20a1]	> 30		6.00 to 7.00	
CN=S1(=O)N[C@@H](CC(C)C)CCc2c1nn(C)c2C(=O)Nc1ccc(F)c(C#N)c1 (single isomer, unassigned) [Compound 90b1]	> 30		6.00 to 7.00	
C[C@@H](OCc1ccccc1)[C@H]1C=Cc2c(cn(C)c2C(=O)Nc2cc(F)c(F)c(F)c2)S(=N)(=O)N1 (single isomer, unassigned) [Compound 10ddd1]	> 30		6.00 to 7.00	
Cn1cc2c(c1C(=O)Nc1ccc(F)c(C#N)c1)C=C[C@H](C1CCCCC1)NS2(=N)=O (single isomer, unassigned) [Compound 10cc1]	> 30		6.00 to 7.00	
Cn1cc2c(c1C(=O)Nc1ccc(F)c(F)c1)C=C[C@H](C1CCCCC1)NS2(=N)=O (single isomer, unassigned) [Compound 10bb1]	> 30		6.00 to 7.00	
CCN=S1(=O)N[C@@H](CC(C)C)CCc2c1cn(C)c2C(=O)Nc1ccc(F)c(C#N)c1 (single isomer, unassigned) [Compound 60w1]	> 30		6.00 to 7.00	
CC(C)C[C@H]1C=Cc2c(cn(C)c2C(=O)Nc2ccc(F)c(C#N)c2)S(=O)(=NC(C)C)N1 (single isomer, unassigned) [Compound 50u1]	> 30		6.00 to 7.00	

SMILES	CC50 at 4 days [1] [µM]	pEC50 [2, 3]	pEC50 [2, 4]	pEC50 ([2]; Hepatitis B virus, HepG2.2.15, read-out: Experiment 2 Cell experiment EC50)
C[C@@H](OCc1ccccc1)[C@H]1CCc2c(cn(C)c2C(=O)Nc2ccc(F)c(C#N)c2)S(=N)(=O)N1 (single isomer, unassigned) [Compound 20ccc1]	> 30	7.00 to 10.00		
CCN=S1(=O)N[C@@H](C(C)C)CCc2c1cn(C)c2C(=O)Nc1ccc(F)c(C#N)c1 (single isomer, unassigned) [Compound 60g1]	> 30		6.00 to 7.00	
CN=S1(=O)N[C@@H](CC(C)C)CCc2c1cn(C)c2C(=O)Nc1ccc(F)c(C#N)c1 (single isomer, unassigned) [Compound 60v1]	> 30		6.00 to 7.00	
COc1ccc(CC[C@H](C)[C@H]2CCc3c(cn(C)c3C(=O)Nc3cc(F)c(F)c(F)c3)S(=N)(=O)N2)cc1 (single isomer, unassigned) [Compound 20ttt1]	> 30		6.00 to 7.00	
CC(C)[C@H]1C=Cc2c(cn(C)c2C(=O)Nc2cc(F)c(F)c(F)c2)S(=N)(=O)N1 (single isomer, unassigned) [Compound 10c1]	> 30		6.00 to 7.00	
CC(C)[C@H]1CCc2c(cn(C)c2C(=O)Nc2cc(F)c(F)c(F)c2)S(=N)(=O)N1 (single isomer, unassigned) [Compound 20c1]	> 30		6.00 to 7.00	
CC(C)[C@H]1CCc2c(cn(C)c2C(=O)Nc2ccc(F)c(C#N)c2)S(=N)(=O)N1 (single isomer, unassigned) [Compound 20b1]	> 30		6.00 to 7.00	
CC(C)[C@H]1CCc2c(nn(C)c2C(=O)Nc2ccc(F)c(C#N)c2)S(=N)(=O)N1 (single isomer, unassigned) [Compound 80a1]	> 30		6.00 to 7.00	
CC(O)[C@H]1C=Cc2c(cn(C)c2C(=O)Nc2ccc(F)c(F)c2)S(=N)(=O)N1 (single isomer, unassigned) [Compound 30a1]	> 30	6.00 to 7.00		
CC(O)[C@H]1CCc2c(cn(C)c2C(=O)Nc2ccc(F)c(C#N)c2)S(=N)(=O)N1 (single isomer, unassigned) [Compound 40b1]	> 30	6.00 to 7.00		
CCN=S1(=O)N[C@@H](CC(C)C)C=Cc2c1cn(C)c2C(=O)Nc1ccc(F)c(C#N)c1 (single isomer, unassigned) [Compound 50t1]	> 30		6.00 to 7.00	
CC(C)C[C@H]1CCc2c(cn(C)c2C(=O)Nc2ccc(F)c(C#N)c2)S(=O)(=NC2CC2)N1 (single isomer, unassigned) [Compound 60y1]	> 30		6.00 to 7.00	
CC(C)[C@H]1C=Cc2c(cn(C)c2C(=O)Nc2ccnc(C(F)F)c2)S(=N)(=O)N1 (single isomer, unassigned) [Compound 10f1]	> 30		6.00 to 7.00	
CC(C)C[C@H]1CCc2c(nn(C)c2C(=O)Nc2ccc(F)c(C#N)c2)S(=N)(=O)N1 (single isomer, unassigned) [Compound 80b1]	> 30		6.00 to 7.00	
CC[C@H](C)[C@H]1C=Cc2c(cn(C)c2C(=O)Nc2ccc(F)c(C#N)c2)S(=N)(=O)N1 (single isomer, unassigned) [Compound 10o1]	> 30		6.00 to 7.00	
Cn1cc2c(c1C(=O)Nc1ccnc(C(F)F)c1)CC[C@H](C1CCCCC1)NS2(=N)=O (single isomer, unassigned) [Compound 20ee1]	> 30		6.00 to 7.00	
CC(C)[C@@H]1C=Cc2c(cn(C)c2C(=O)Nc2ccc(F)c(F)c2)S(=N)(=O)N1 (single isomer, unassigned) [Compound 10g1]	> 30		6.00 to 7.00	
COc1ccc(CC[C@H](C)[C@H]2C=Cc3c(cn(C)c3C(=O)Nc3cc(F)nc(C#N)c3)S(=N)(=O)N2)cc1 (single isomer, unassigned) [Compound 10vvv1]	> 30		6.00 to 7.00	
CN=S1(=O)N[C@@H](C(C)C)CCc2c1cn(C)c2C(=O)Nc1ccc(F)c(F)c1 (single isomer, unassigned) [Compound 60a1]	> 30		6.00 to 7.00	
CN=S1(=O)N[C@@H](C(C)C)C=Cc2c1cn(C)c2C(=O)Nc1ccc(F)c(F)c1 (single isomer, unassigned) [Compound 50a1]	> 30		6.00 to 7.00	
CC(O)[C@H]1CCc2c(cn(C)c2C(=O)Nc2ccc(F)c(F)c2)S(=N)(=O)N1 (single isomer, unassigned) [Compound 40a1]	> 30	6.00 to 7.00		
CC(C)[C@H]1C=Cc2c(cn(C)c2C(=O)Nc2ccc(F)c(C#N)c2)S(=N)(=O)N1 (single isomer, unassigned) [Compound 10b1]	> 30			6.00 to 7.00
CN=S1(=O)N[C@@H](C(C)C)CCc2c1nn(C)c2C(=O)Nc1ccc(F)c(C#N)c1 (single isomer, unassigned) [Compound 90a1]	> 30		6.00 to 7.00	
